From publication PMC5641405 (Organic letters, 2017)

Biological target: N-methyl-D-aspartate (NMDA) receptor, MK-801 binding site
Experiment: radioligand displacement of [3H]-MK801
Details: read-out: IC50 (μM) ^a; MK-801 channel site

Compound | IC50 [µM]
CNC1(c2ccccc2Cl)CCCCC1=O (racemic) [compound 1, (R,S)-ketamine] | 0.35
N[C@@]1(c2ccccc2Cl)CCC=CC1=O [3a, (R)-DHNK] | 59.7
N[C@]1(c2ccccc2Cl)CCC=CC1=O [3b, (S)-DHNK] | 42
N[C@@]1(c2ccccc2Cl)CCC[C@H](O)C1=O [4a, (2R,6S)-HNK] | > 100
N[C@]1(c2ccccc2Cl)CCC[C@@H](O)C1=O [4b, (2S,6R)-HNK] | > 100
N[C@@]1(c2ccccc2Cl)CCC[C@@H](O)C1=O [7a, (2R,6R)-HNK] | > 100
N[C@]1(c2ccccc2Cl)CCC[C@H](O)C1=O [7b, (2S,6S)-HNK] | 10.4
N[C@@]1(c2ccccc2Cl)CC[C@@H](O)CC1=O [8a, (2R,5R)-HNK] | > 100
N[C@]1(c2ccccc2Cl)CC[C@H](O)CC1=O [8b, (2S,5S)-HNK] | > 100
N[C@@]1(c2ccccc2Cl)CC[C@H](O)CC1=O [9a, (2R,5S)-HNK] | > 100
N[C@]1(c2ccccc2Cl)CC[C@@H](O)CC1=O [9b, (2S,5R)-HNK] | > 100
N[C@@]1(c2ccccc2Cl)C[C@@H](O)CCC1=O [10a, (2R,4S)-HNK] | > 100
N[C@]1(c2ccccc2Cl)C[C@H](O)CCC1=O [10b, (2S,4R)-HNK] | > 100
N[C@@]1(c2ccccc2Cl)C[C@H](O)CCC1=O [11a, (2R,4R)-HNK] | > 100
N[C@]1(c2ccccc2Cl)C[C@@H](O)CCC1=O [11b, (2S,4S)-HNK] | > 100
(+)-MK-801 [reference compound] | 0.00493

Biological target: N-methyl-D-aspartate (NMDA) receptor, MK-801 binding site
Experiment: radioligand displacement of [3H]-MK801
Details: read-out: Ki (μM) ^a; MK-801 channel site

Compound | Ki [µM]
CNC1(c2ccccc2Cl)CCCCC1=O (racemic) [compound 1, (R,S)-ketamine] | 0.25
N[C@@]1(c2ccccc2Cl)CCC=CC1=O [3a, (R)-DHNK] | 42.1
N[C@]1(c2ccccc2Cl)CCC=CC1=O [3b, (S)-DHNK] | 29.7
N[C@@]1(c2ccccc2Cl)CCC[C@H](O)C1=O [4a, (2R,6S)-HNK] | > 100
N[C@]1(c2ccccc2Cl)CCC[C@@H](O)C1=O [4b, (2S,6R)-HNK] | > 100
N[C@@]1(c2ccccc2Cl)CCC[C@@H](O)C1=O [7a, (2R,6R)-HNK] | > 100
N[C@]1(c2ccccc2Cl)CCC[C@H](O)C1=O [7b, (2S,6S)-HNK] | 7.34
N[C@@]1(c2ccccc2Cl)CC[C@@H](O)CC1=O [8a, (2R,5R)-HNK] | > 100
N[C@]1(c2ccccc2Cl)CC[C@H](O)CC1=O [8b, (2S,5S)-HNK] | > 100
N[C@@]1(c2ccccc2Cl)CC[C@H](O)CC1=O [9a, (2R,5S)-HNK] | > 100
N[C@]1(c2ccccc2Cl)CC[C@@H](O)CC1=O [9b, (2S,5R)-HNK] | > 100
N[C@@]1(c2ccccc2Cl)C[C@@H](O)CCC1=O [10a, (2R,4S)-HNK] | > 100
N[C@]1(c2ccccc2Cl)C[C@H](O)CCC1=O [10b, (2S,4R)-HNK] | > 100
N[C@@]1(c2ccccc2Cl)C[C@H](O)CCC1=O [11a, (2R,4R)-HNK] | > 100
N[C@]1(c2ccccc2Cl)C[C@@H](O)CCC1=O [11b, (2S,4S)-HNK] | > 100
(+)-MK-801 [reference compound] | 0.00348
